Source: US20110160123A1, “TARGETING THE EFFLUX SYSTEMS OF MYCOBACTERIUM TUBERCULOSIS” (THE UAB RESEARCH FOUNDATION, priority 2008, published 2011)
In brackets after ≈: the same amount, converted by molar mass. Like-named read-outs stand apart in the source and are kept apart here.

Tests used:
[1] = system: M. smegmatis overexpressing the rv0194 gene of M. tuberculosis (SMR5/pML655); assay: microbe, parasite or virus in culture; format: cell-based; settings: for MIC: Mycolicibacterium smegmatis
[2] = system: M. bovis BCG transposon mutants; format: cell-based
[3] = system: M. bovis BCG ML1034 mutant (bcg0231/rv0194 overexpressed); format: cell-based
[4] = system: M. tuberculosis mctB mutant ML256 (Δrv1698); format: cell-based
Mtb mctB mutant ML256 = system: Mtb mctB mutant ML256; design: species or system mice; settings: mouse, in vivo
[5] = read-out: MIC rv0194 overexpression

CO[C@@H]1[C@@H](OC(N)=O)[C@@H](O)[C@H](Oc2ccc3c(O)c(NC(=O)c4ccc(O)c(CC=C(C)C)c4)c(=O)oc3c2C)OC1(C)C [Novobiocin]
Resistance Factor [1]: 2
MIC [1, 5]: 0.008 mg/mL (≈ 13.1 µM)

CC1(C)S[C@@H]2[C@H](NC(=O)[C@H](N)c3ccccc3)C(=O)N2[C@H]1C(=O)O [Ampicillin]
Resistance Factor [1]: 2
MIC [1, 5]: 0.25 mg/mL (≈ 715 µM)
MIC of ampicillin, completely resistant mutants [2]: ≥ 2,000 μg/ml
MIC of ampicillin, mutants excluded from further analysis [2]: lower than 250 μg/ml
MICs of ampicillin for all transposon mutants [2]: higher than 62.5 μg/ml
MIC of amp. [3]: 2000 mg/mL
Resistance Factor [3]: 32

CN[C@H](CC(C)C)C(=O)N[C@H]1C(=O)N[C@@H](CC(N)=O)C(=O)N[C@H]2C(=O)N[C@H]3C(=O)N[C@H](C(=O)N[C@H](C(=O)O)c4cc(O)cc(O)c4-c4cc3ccc4O)[C@H](O)c3ccc(c(Cl)c3)Oc3cc2cc(c3O[C@@H]2O[C@H](CO)[C@@H](O)[C@H](O)[C@H]2O[C@H]2C[C@](C)(N)[C@H](O)[C@H](C)O2)Oc2ccc(cc2Cl)[C@H]1O [Vancomycin]
Resistance Factor [1]: 2
MIC [1, 5]: 0.0025 mg/mL (≈ 1.73 µM)
MIC ML1034 [3]: 0.02 mg/mL (≈ 13.8 µM)

CN(C)[C@@H]1C(=O)C(C(N)=O)=C(O)[C@@]2(O)C(=O)C3=C(O)c4c(O)cccc4[C@@](C)(O)[C@H]3C[C@@H]12 [Tetracyclin]
MIC rv0194 overexpression [1]: 0.0003 mg/mL (≈ 0.675 µM)
Resistance Factor [1]: 1
MIC ML1034 [3]: >0.016 mg/mL

CC[n+]1c(-c2ccccc2)c2cc(N)ccc2c2ccc(N)cc21 [ethidium bromide]
MIC ([1]; read-out: MIC of ethidium bromide): 0.0025 mg/mL

O=C(N[C@H](CO)[C@H](O)c1ccc([N+](=O)[O-])cc1)C(Cl)Cl [Chloramphenicol]
Resistance Factor [1]: 1
MIC [1, 5]: 0.032 mg/mL (≈ 99 µM)
MIC ML1034 [3]: 0.512 mg/mL (≈ 1580 µM)
Resistance Factor [3]: 64

CC[C@H]1OC(=O)[C@H](C)[C@@H](O[C@H]2C[C@@](C)(OC)[C@@H](O)[C@H](C)O2)[C@H](C)[C@@H](O[C@@H]2O[C@H](C)C[C@H](N(C)C)[C@H]2O)[C@](C)(O)C[C@@H](C)C(=O)[C@H](C)[C@@H](O)[C@]1(C)O [Erythromycin]
Resistance Factor [1]: 4
MIC [1, 5]: 0.01 mg/mL (≈ 13.6 µM)

[H]/N=C(/N)N[C@H]1[C@H](O)[C@@H](O)[C@H](O[C@@H]2O[C@@H](C)[C@](O)(C=O)[C@H]2O[C@@H]2O[C@@H](CO)[C@H](O)[C@@H](O)[C@@H]2NC)[C@@H](N/C(N)=N\[H])[C@@H]1O [Streptomycin]
MIC ML1034 [3]: 0.016 mg/mL (≈ 27.5 µM)
Resistance Factor [3]: 32

O=S(=O)([O-])[O-].[Cu+2] [CuSO4]
growth rate on plates with CuSO4 [4]: severely reduced the growth rate
effect of dietary CuSO4 on persistence of the mctB mutant in lungs (Mtb mctB mutant ML256): aggravated the persistence defect

Cc1cc(-c2ccc(S(=O)(=O)O)cc2)c2ccc3c(-c4ccc(S(=O)(=O)O)cc4)cc(C)nc3c2n1 [Bathocuproine disulfonate]
protection from the toxic effects of CuSO4 [4]: protects Mtb from the toxic effects of CuSO4
